{
  "source": "patent EP0684822B1",
  "about": "“CARBOCYCLIC DEOXYGUANOSINE ANALOGS FOR THE TREATMENT OF VIRAL INFECTIONS” (SOUTHERN RESEARCH INSTITUTE, priority 1993, dated 1994)",
  "key": {"[1]": {"system": "H.Ep.-2 cells infected with HSV-1", "experiment": "Metabolism in HSV-1-infected H.Ep.-2 cells, SAX HPLC", "type": "cell-based, human", "conditions": "H.Ep.-2 cells infected with HSV-1, 8 hours, Fig. 4", "protocol": "The in vivo metabolism of D- and L-2'CdG was also measured in HSV-[TK+]-infected, HSV-[TK-]-infected and mock infected H.Ep.-2 cells (human epidermal carcinoma cells, ATCC CCL23). Uninfected and infected cells were incubated in fresh medium containing 2 µCi/ml of either [^3H]-D- or L-2'CdG, as described above, to measure the metabolism of these enantiomers. After 8 hours the cells were harvested and washed free of medium with PBS, and extracts were prepared with cold 0.5 N perchloric acid for 0.5 hr. The extract was then neutralized with potassium bicarbonate and the resulting precipitate was removed by centrifugation. The supernatant was lyophilized to dryness and the acid-soluble metabolites were separated using SAX HPLC as described above.\n(§1) While these findings are similar to those obtained with the isolated viral kinase, they differ from the resulted with the isolated enzyme in that relatively more di- and triphosphate were formed from L-2'CdG."}, "[2]": {"biological_target": "T1, HSV-1 TK (Human herpesvirus 1, UniProt P0DTH5)", "T1 construct": "HSV thymidine kinase (HSV TK) was isolated from HELA (BU25) cells infected with the SW148 strain of HSV-1; made in house; host or cells: HeLa (BU25) thymidine-kinase-deficient cells infected with HSV-1 strain S148/SW148", "T1 sequence (P0DTH5 whole entry)": "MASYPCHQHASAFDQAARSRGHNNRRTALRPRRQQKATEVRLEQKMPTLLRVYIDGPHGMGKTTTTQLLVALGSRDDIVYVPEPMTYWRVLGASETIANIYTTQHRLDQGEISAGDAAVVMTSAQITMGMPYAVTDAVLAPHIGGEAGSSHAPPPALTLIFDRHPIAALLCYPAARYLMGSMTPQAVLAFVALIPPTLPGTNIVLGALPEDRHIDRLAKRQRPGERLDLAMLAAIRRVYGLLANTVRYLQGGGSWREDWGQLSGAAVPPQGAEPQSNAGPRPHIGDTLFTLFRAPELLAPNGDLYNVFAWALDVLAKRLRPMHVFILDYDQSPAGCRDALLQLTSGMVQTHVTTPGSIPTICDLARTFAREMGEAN", "experiment": "Competitive inhibition of [3H]-thymidine phosphorylation by partially purified HSV-1 TK", "type": "biochemical", "protocol": "The Ki's were determined from a plot of the slope of each line versus the concentration of the competitor (D-, L, or D,L-2'CdG) and are summarized below: TABLE 2"}, "[3]": {"system": "CCRF-CEM cells", "experiment": "Phosphorylation in uninfected CCRF-CEM cells, effects of dCyd and mycophenolic acid", "type": "cell-based", "conditions": "for increase in the phosphates in the presence of mycophenolic acid / reduction of the amount of phosphates in the presence of dCyd: Fig. 6; for reduction of the amount of phosphates in the presence of dCyd: calculated from the radioactivity in the peaks", "protocol": "as §1\nIdentity of the cellular enzyme(s) responsible for the phosphorylation of the enantiomers of 2'CdG. […] 36:291, 1989). To determine if dCyd kinase was involved, studies were carried out in which cells were indubated with D- or L-2'CdG and dCyd, and the formation of phosphates was monitored by HPLC. […] The presence of mycophenolic acid produced an increase in the phosphates of D- or L-2'CdG of 2.5-fold and 1.4-fold, respectively."}, "[4]": {"system": "human CMV", "experiment": "Intravitreal human CMV infection in rabbits", "type": "in vivo, New Zealand white rabbits", "conditions": "intravitreal injection, 100 µg in 100 µl, 48-hour intervals beginning at day 4", "description": "The symptoms included vitritis, iritis, retinal pathology (micro hemorrhages and focal necrosis of the retinal surface), corneal stromal haze and neovascularization, and corneal endothelial pigmented precipitates. […] The intravitreal route offers some significant advantages for intraocular infections including: 1) delivery of maximal concentrations of drug to the desired site of action; 2) increased potential for sustained release (i.e., longer half-life, T1/2) of the drug; and 3) reduced potential for systemic toxicity."}, "[5]": {"system": "human CMV", "experiment": "In vitro activity against human CMV in human foreskin fibroblast cells", "type": "cell-based", "protocol": "The in vitro activity of D-2'-CdG was also compared with the current investigational drug of choice for human CMV, DHPG. These experiments were carried out in human foreskin fibroblast cells."}, "[6]": {"system": "MRC5 cell monolayer cultures", "experiment": "Drug cytotoxicity (gross morphology) in MRC5 cell monolayer cultures", "type": "cell-based"}, "[7]": {"system": "CMV", "experiment": "CMV yield reduction in MRC5 cell monolayer cultures (plaque assay)", "type": "cell-based, human CMV", "conditions": "for CMV Yield PFU/mL: virus controls 1.1 x 10^5; for CMV Yield log10 PFU/mL: virus controls 5.1", "protocol": "(§2) The D- and L-enantiomers of 2'-CdG were prepared from racemic C-2,6-DAPR by an enzymatic method as described above Secrist et al. (J. Med. Chem. 30:746, 1987). The effectiveness of racemic-2'-CdG and of D-2'-CdG in reducing CMV yields in MRC5 cell monolayer cultures was determined by a plaque assay with the results set forth in tables 6 and 7."}, "[8]": {"system": "MRC5 cell monolayer cultures", "experiment": "Drug cytotoxicity (gross morphology) in MRC5 cell monolayer cultures", "type": "cell-based", "protocol": "as §2", "remark": "listed apart in the source"}},
  "data": [
    {"smiles": "Nc1nc2c(ncn2[C@H]2C[C@@H](CO)[C@H](O)C2)c(=O)[nH]1", "note": "[L-2'-CdG, [1S,3R,4S-(1α,3β,4α)]-L-2-Amino-1,9-dihydro-9-[3-hydroxy-4-(hydroxymethyl)cyclopentyl]-6H-purin-6-one]", "values": [
      {"measurement": "principal soluble metabolite", "setting": "[1]", "result": "the monophosphate"},
      {"measurement": "Ki", "setting": "[2]", "result": 3.4, "unit": "µM"},
      {"measurement": "increase in the phosphates in the presence of mycophenolic acid", "setting": "[3]", "result": 1.4, "unit": "fold"},
      {"measurement": "reduction of the amount of phosphates in the presence of dCyd", "setting": "[3]", "result": "80-90%"},
      {"measurement": "predominant metabolite", "setting": "[3]; uninfected CEM cells, Fig. 5", "result": "the monophosphate"},
      {"measurement": "total amount of phosphates formed, relative to D-2'CdG", "setting": "[3]; uninfected CEM cells, Fig. 5", "result": "about twice that formed from D-2'CdG"}
    ]},
    {"smiles": "Nc1nc2c(ncn2[C@@H]2C[C@H](CO)[C@@H](O)C2)c(=O)[nH]1", "note": "[D-2'-CdG, [1R,3S,4R-(1α,3β,4α)]-D-2-Amino-1,9-dihydro-9-[3-hydroxy-4-(hydroxymethyl)cyclopentyl]-6H-purin-6-one]", "values": [
      {"measurement": "principal soluble metabolite", "setting": "[1]", "result": "the triphosphate"},
      {"measurement": "clinical effect compared to placebo", "setting": "[4]", "result": "effective in reducing the development of retinal pathology and in reducing the severity of the vitritis and iritis"},
      {"measurement": "clinical outcome compared to ganciclovir (DHPG) under the same conditions", "setting": "[4]", "result": "clinically better than treatment with ganciclovir"},
      {"measurement": "antiviral potency relative to DHPG", "setting": "[5]", "result": "more than 3 times"},
      {"measurement": "EC50", "setting": "[5]; Human betaherpesvirus 5, read-out: ED50 value (median dose at which 50% antiviral efficacy is observed)", "result": 0.06, "unit": "µg/mL"},
      {"measurement": "Drug Cytotoxicity (Gross Morphology)", "setting": "[6]; 0.1 µM", "result": 0},
      {"measurement": "Drug Cytotoxicity (Gross Morphology)", "setting": "[6]; 1.0 µM", "result": 0},
      {"measurement": "Drug Cytotoxicity (Gross Morphology)", "setting": "[6]; 10 µM", "result": 0},
      {"measurement": "Drug Cytotoxicity (Gross Morphology)", "setting": "[6]; 100 µM", "result": "slight toxicity"},
      {"measurement": "Ki", "setting": "[2]", "result": 2.1, "unit": "µM"},
      {"measurement": "CMV Yield PFU/mL", "setting": "[7]; 0.1 µM", "result": "3.8 x 10^4 PFU/mL"},
      {"measurement": "CMV Yield log10 PFU/mL", "setting": "[7]; 0.1 µM", "result": 4.6, "unit": "log10 PFU/mL"},
      {"measurement": "CMV Yield PFU/mL", "setting": "[7]; 0.32 µM", "result": "1.4 x 10^4 PFU/mL"},
      {"measurement": "CMV Yield log10 PFU/mL", "setting": "[7]; 0.32 µM", "result": 4.1, "unit": "log10 PFU/mL"},
      {"measurement": "CMV Yield PFU/mL", "setting": "[7]; 1.0 µM", "result": "5.4 x 10^3 PFU/mL"},
      {"measurement": "CMV Yield log10 PFU/mL", "setting": "[7]; 1.0 µM", "result": 3.7, "unit": "log10 PFU/mL"},
      {"measurement": "CMV Yield PFU/mL", "setting": "[7]; 3.2 µM", "result": "8.4 x 10^2 PFU/mL"},
      {"measurement": "CMV Yield log10 PFU/mL", "setting": "[7]; 3.2 µM", "result": 2.9, "unit": "log10 PFU/mL"},
      {"measurement": "CMV Yield PFU/mL", "setting": "[7]; 10 µM", "result": "2 x 10^1 PFU/mL"},
      {"measurement": "CMV Yield log10 PFU/mL", "setting": "[7]; 10 µM", "result": 1.3, "unit": "log10 PFU/mL"},
      {"measurement": "CMV Yield PFU/mL", "setting": "[7]; 32 µM", "result": 0, "unit": "PFU/mL"},
      {"measurement": "CMV Yield PFU/mL", "setting": "[7]; 100 µM", "result": 0, "unit": "PFU/mL"},
      {"measurement": "inhibition at 0.1 µM", "setting": "[7]; Human betaherpesvirus 5, MRC5, 0.1 µM, read-out: Reduction (%) of CPE by D-2'CdG at Time of Virus Harvest", "result": 0, "unit": "%"},
      {"measurement": "inhibition at 0.32 µM", "setting": "[7]; Human betaherpesvirus 5, MRC5, 0.32 µM, read-out: Reduction (%) of CPE by D-2'CdG at Time of Virus Harvest", "result": 0, "unit": "%"},
      {"measurement": "inhibition at 1 µM", "setting": "[7]; Human betaherpesvirus 5, MRC5, 1.0 µM, read-out: Reduction (%) of CPE by D-2'CdG at Time of Virus Harvest", "result": 10, "unit": "%"},
      {"measurement": "inhibition at 3.2 µM", "setting": "[7]; Human betaherpesvirus 5, MRC5, 3.2 µM, read-out: Reduction (%) of CPE by D-2'CdG at Time of Virus Harvest", "result": 10, "unit": "%"},
      {"measurement": "inhibition at 10 µM", "setting": "[7]; Human betaherpesvirus 5, MRC5, 10 µM, read-out: Reduction (%) of CPE by D-2'CdG at Time of Virus Harvest", "result": 25, "unit": "%"},
      {"measurement": "inhibition at 32 µM", "setting": "[7]; Human betaherpesvirus 5, MRC5, 32 µM, read-out: Reduction (%) of CPE by D-2'CdG at Time of Virus Harvest", "result": 50, "unit": "%"},
      {"measurement": "inhibition at 100 µM", "setting": "[7]; Human betaherpesvirus 5, MRC5, 100 µM, read-out: Reduction (%) of CPE by D-2'CdG at Time of Virus Harvest", "result": 50, "unit": "%"},
      {"measurement": "Drug Cytotoxicity (Gross Morphology)", "setting": "[8]; 0.32 µM", "result": 0},
      {"measurement": "Drug Cytotoxicity (Gross Morphology)", "setting": "[8]; 3.2 µM", "result": 0},
      {"measurement": "Drug Cytotoxicity (Gross Morphology)", "setting": "[8]; 32 µM", "result": "v. sl. toxicity"},
      {"measurement": "Drug Cytotoxicity (Gross Morphology)", "setting": "[8]; 320 µM", "result": "toxic"},
      {"measurement": "increase in the phosphates in the presence of mycophenolic acid", "setting": "[3]", "result": 2.5, "unit": "fold"},
      {"measurement": "reduction of the amount of phosphates in the presence of dCyd", "setting": "[3]", "result": "80-90%"},
      {"measurement": "predominant metabolite", "setting": "[3]; uninfected CEM cells, Fig. 5", "result": "the triphosphate"}
    ]}
  ]
}
